Assay results published in the supplement of paper PMC11208160.

experiment: recombinant barcode read abundance after kanamycin selection (control-corrected) (log10(CPM+1)); higher = more efficient recombination; sequences stand for … in AGTGCAGAGAAAATCGGCCAGTTTTCTCTGCCTGCAGTCCGCATGCCGT…AGATTTATGCAGCGGACTGCCTTTCTCCCAAAGTGATAAACCGGACAGTATCATGGACCGGTTTTCCCGGTAATCCGTATTTGCAAGGTTGGTTTCACT; site = the 11-nt target
How it was run: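 Pooled oligos, each joining a target to an IS621 bridge RNA target-binding loop, were cloned and co-electroporated with a donor plasmid into E. coli. Selective plates carried chloramphenicol/ampicillin/kanamycin and 0.1 mM IPTG, while chloramphenicol/ampicillin LB agar served as control, with two replicates of each. Recombination efficiency rests on averaged, control-corrected counts per million of barcodes at recombinant junctions, shown as log10(CPM+1).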
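Further: IS621 recombinase and bridge RNA in Escherichia coli cells.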

Sequence | recombinant barcode read abundance (log10)
TAGCCACCTTGGGTTCTAACCTGTTGCCT (site GAGCCACCTAG) | 0.0875
TAGCCACCTTGGGTTCTAACCTGTTGCCT (site TAGCCACCTAG) | 1.94
TAGCCGACTTGGGTTCTAACCTGTTGCCT (site TAGCAGACTAG) | 0.181
TAGCCGACTTGGGTTCTAACCTGTTGCCT (site TAGCCGACTAG) | 1.59
TAGCCGACTTGGGTTCTAACCTGTTGCCT (site TAGCGGACTAG) | 0.251
TAGCCGACTTGGGTTCTAACCTGTTGCCT (site TAGCTGACTAG) | 0.0182
TAGCCGACTTGGGTTCTAACCTGTTGCTT (site TAGACGACTAA) | 0.131
TAGCCGACTTGGGTTCTAACCTGTTGCTT (site TAGCCGACTAA) | 0.999
TAGCCGACTTGGGTTCTAACCTGTTGCTT (site TAGGCGACTAA) | 0.309
TAGCCGACTTGGGTTCTAACCTGTTGCTT (site TAGTCGACTAA) | 0.242
TAGCCGTCTTGGGTTCTAACCTGTTGCAC (site TAGACGACTGT) | 0.0911
TAGCCGTCTTGGGTTCTAACCTGTTGCAC (site TAGCCGTCTGT) | 1.4
TAGCCTTCTTGGGTTCTAACCTGTTGCTG (site TAGCCTTCTCA) | 1.02
TAGCCTTCTTGGGTTCTAACCTGTTGCTG (site TAGCCTTCTTA) | 0.252
TAGCTAGCTTGGGTTCTAACCTGTTGCGT (site GCTTACCCTTA) | 0.0618
TAGCTAGCTTGGGTTCTAACCTGTTGCGT (site TAGCTAGCTAC) | 1.62
TAGCTCACTTGGGTTCTAACCTGTTGCAT (site TAGATCACTAT) | 0.0546
TAGCTCACTTGGGTTCTAACCTGTTGCAT (site TAGCTCACTAT) | 1.17
TAGCTCACTTGGGTTCTAACCTGTTGCAT (site TAGGTCACTAT) | 0.181
TAGCTCACTTGGGTTCTAACCTGTTGCAT (site TAGTTCACTAT) | 0.307
TAGGAACCTTGGGTTCTAACCTGTTGCCT (site AAGGAACCTAG) | 0.7
TAGGAACCTTGGGTTCTAACCTGTTGCCT (site CAGGAACCTAG) | 0.649

Sequence | recombinant barcode read abundance (log10)
TAGGAACCTTGGGTTCTAACCTGTTGCCT (site GAGGAACCTAG) | 0.0651
TAGGAACCTTGGGTTCTAACCTGTTGCCT (site TAGGAACCTAG) | 2.63
TAGGACACTTGGGTTCTAACCTGTTGCCA (site TAGGACACTTG) | 1.86
TAGGACACTTGGGTTCTAACCTGTTGCCA (site TCGGATACTTG) | 0.198
TAGGACACTTGGGTTCTAACCTGTTGCGT (site TAGGAAACTAC) | 0.378
TAGGACACTTGGGTTCTAACCTGTTGCGT (site TAGGACACTAC) | 2.8
TAGGACACTTGGGTTCTAACCTGTTGCGT (site TAGGAGACTAC) | 0.1
TAGGACACTTGGGTTCTAACCTGTTGCGT (site TAGGATACTAC) | 0.295
TAGGACGCTTGGGTTCTAACCTGTTGCCT (site TAAGACGCTAG) | 1.76
TAGGACGCTTGGGTTCTAACCTGTTGCCT (site TACGACGCTAG) | 0.114
TAGGACGCTTGGGTTCTAACCTGTTGCCT (site TAGGACGCTAG) | 2.53
TAGGACGCTTGGGTTCTAACCTGTTGCCT (site TATGACGCTAG) | 0.286
TAGGATGCTTGGGTTCTAACCTGTTGCGT (site TAGGATGCTAC) | 2.66
TAGGATGCTTGGGTTCTAACCTGTTGCGT (site TAGGATTCTAC) | 0.248
TAGGCCACTTGGGTTCTAACCTGTTGCAT (site TAGGCCACTAA) | 0.071
TAGGCCACTTGGGTTCTAACCTGTTGCAT (site TAGGCCACTAC) | 0.0809
TAGGCCACTTGGGTTCTAACCTGTTGCAT (site TAGGCCACTAG) | 0.294
TAGGCCACTTGGGTTCTAACCTGTTGCAT (site TAGGCCACTAT) | 1.39
TAGGCCACTTGGGTTCTAACCTGTTGCGT (site TAGGCCACTAA) | 0.522
TAGGCCACTTGGGTTCTAACCTGTTGCGT (site TAGGCCACTAC) | 2.85
TAGGCCACTTGGGTTCTAACCTGTTGCGT (site TAGGCCACTAG) | 0.0599
TAGGCCACTTGGGTTCTAACCTGTTGCGT (site TAGGCCACTAT) | 1.7

Sequence | recombinant barcode read abundance (log10)
TAGGCGCCTTGGGTTCTAACCTGTTGCTT (site TAGGCGCCTAA) | 1.03
TAGGCGCCTTGGGTTCTAACCTGTTGCTT (site TAGGCGCCTAC) | 0.263
TAGGCGCCTTGGGTTCTAACCTGTTGCTT (site TAGGCGCCTAG) | 0.193
TAGGCGCCTTGGGTTCTAACCTGTTGCTT (site TAGGCGCCTAT) | 0.0771
TAGGCTCCTTGGGTTCTAACCTGTTGCAT (site TAGGCTCCTAT) | 1.19
TAGGCTCCTTGGGTTCTAACCTGTTGCAT (site TAGGCTCCTCT) | 0.0701
TAGGCTCCTTGGGTTCTAACCTGTTGCAT (site TAGGCTCCTGT) | 0.0892
TAGGCTCCTTGGGTTCTAACCTGTTGCAT (site TAGGCTCCTTT) | 0.0761
TAGGGCACTTGGGTTCTAACCTGTTGCTG (site TAGGGCACTCA) | 2.1
TAGGGCACTTGGGTTCTAACCTGTTGCTG (site TAGGGCACTCG) | 0.888
TAGGGCGCTTGGGTTCTAACCTGTTGCCT (site TAAGGAGCTAG) | 0.204
TAGGGCGCTTGGGTTCTAACCTGTTGCCT (site TAGGGCGCTAG) | 1.01
TAGGTGCCTTGGGTTCTAACCTGTTGCAT (site TAGGTACCTAT) | 1.21
TAGGTGCCTTGGGTTCTAACCTGTTGCAT (site TAGGTCCCTAT) | 0.0424
TAGGTGCCTTGGGTTCTAACCTGTTGCAT (site TAGGTGCCTAT) | 1.79
TAGGTGCCTTGGGTTCTAACCTGTTGCAT (site TAGGTTCCTAT) | 0.167
TAGGTGCCTTGGGTTCTAACCTGTTGCGG (site TAGGTGACTCC) | 0.134
TAGGTGCCTTGGGTTCTAACCTGTTGCGG (site TAGGTGCCTCC) | 2.99
TAGTAAGCTTGGGTTCTAACCTGTTGCTG (site TAGTAAGCTCA) | 0.921
TAGTAAGCTTGGGTTCTAACCTGTTGCTG (site TAGTACGCTCT) | 0.142
TAGTACACTTGGGTTCTAACCTGTTGCAC (site ACCATGTCTCC) | 0.0598
TAGTACACTTGGGTTCTAACCTGTTGCAC (site TAGTACACTGT) | 1.55

Sequence | recombinant barcode read abundance (log10)
TAGTACTCTTGGGTTCTAACCTGTTGCTA (site TAGTACTCTAA) | 0.0398
TAGTACTCTTGGGTTCTAACCTGTTGCTA (site TAGTACTCTCA) | 0.0859
TAGTACTCTTGGGTTCTAACCTGTTGCTA (site TAGTACTCTGA) | 0.164
TAGTACTCTTGGGTTCTAACCTGTTGCTA (site TAGTACTCTTA) | 1.58
TAGTACTCTTGGGTTCTAACCTGTTGCTT (site TAGTACTCTAA) | 1.14
TAGTACTCTTGGGTTCTAACCTGTTGCTT (site TAGTACTCTCA) | 0.0325
TAGTACTCTTGGGTTCTAACCTGTTGCTT (site TAGTACTCTGA) | 0.199
TAGTACTCTTGGGTTCTAACCTGTTGCTT (site TAGTACTCTTA) | 0.0259
TAGTATCCTTGGGTTCTAACCTGTTGCGT (site TAGTATCCTAC) | 1.87
TAGTATCCTTGGGTTCTAACCTGTTGCGT (site TAGTCTCCTAC) | 0.0759
TAGTATCCTTGGGTTCTAACCTGTTGCGT (site TAGTGTCCTAC) | 0.0306
TAGTATCCTTGGGTTCTAACCTGTTGCGT (site TAGTTTCCTAC) | 0.21
TAGTCCACTTGGGTTCTAACCTGTTGCTA (site AAGTCCACTAA) | 0.239
TAGTCCACTTGGGTTCTAACCTGTTGCTA (site TAGTCCACTTA) | 1.15
TAGTCCGCTTGGGTTCTAACCTGTTGCCG (site TAGCCCTCTCG) | 0.214
TAGTCCGCTTGGGTTCTAACCTGTTGCCG (site TAGTCCGCTCG) | 0.446
TAGTCCTCTTGGGTTCTAACCTGTTGCTG (site TAGTCCTCTAA) | 0.048
TAGTCCTCTTGGGTTCTAACCTGTTGCTG (site TAGTCCTCTCA) | 1.02
TAGTCCTCTTGGGTTCTAACCTGTTGCTG (site TAGTCCTCTGA) | 0.14
TAGTCCTCTTGGGTTCTAACCTGTTGCTG (site TAGTCCTCTTA) | 0.185
